Reference: patent US11161856B2 (H. Lundbeck A/S, priority 2017, dated 2021)

What was measured:
[1] = target: T1, MGLL (Mus musculus, UniProt O35678); assay: In vitro competitive activity-based protein profiling, mouse brain proteome (MGLL); assay type: biochemical; settings: for % Inh MGLL Brain (Mouse, μM): concentration not given (μM)
T1 construct: Brain; from tissue; host or cells: mouse brain proteome
T1 sequence (O35678 1-303): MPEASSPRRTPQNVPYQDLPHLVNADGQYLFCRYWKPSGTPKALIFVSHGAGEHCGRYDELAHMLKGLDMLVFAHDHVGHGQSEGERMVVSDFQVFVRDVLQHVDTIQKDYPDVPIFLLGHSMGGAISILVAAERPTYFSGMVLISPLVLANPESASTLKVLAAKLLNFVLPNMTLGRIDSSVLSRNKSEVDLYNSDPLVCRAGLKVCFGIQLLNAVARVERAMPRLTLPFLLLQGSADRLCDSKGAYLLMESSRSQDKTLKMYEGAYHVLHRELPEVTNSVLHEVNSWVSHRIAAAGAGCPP

[2] = target: T2, ABHD6 (Mus musculus, UniProt Q8R2Y0); assay: In vitro competitive activity-based protein profiling, mouse brain proteome (ABHD6); assay type: biochemical; settings: for % Inh ABHD6 Brain (Mouse, μM): mouse brain proteome, concentration not given (μM)
T2 construct: Brain; from tissue; host or cells: mouse brain proteome
T2 sequence (Q8R2Y0 1-336): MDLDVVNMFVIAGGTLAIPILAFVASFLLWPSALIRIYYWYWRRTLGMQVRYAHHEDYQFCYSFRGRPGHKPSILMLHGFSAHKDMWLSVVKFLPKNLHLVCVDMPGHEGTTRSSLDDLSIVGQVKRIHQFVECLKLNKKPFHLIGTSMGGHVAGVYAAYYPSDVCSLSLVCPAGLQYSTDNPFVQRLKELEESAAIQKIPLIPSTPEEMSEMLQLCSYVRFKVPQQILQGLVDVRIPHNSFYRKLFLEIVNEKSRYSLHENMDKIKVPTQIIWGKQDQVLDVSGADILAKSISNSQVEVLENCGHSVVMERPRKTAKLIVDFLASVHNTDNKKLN
Method: [The source words this procedure for another target and reports this target under the same test.] In Vitro Competitive Activity-Based Protein Profiling.
Proteomes (human prefrontal cortex or cell membrane fractions) (50 μL, 1.0 mg/mL total protein concentration) were preincubated with varying concentrations of inhibitors at 37° C. After 30 min, FP-Rh or HT-01 (1.0 μL, 50 μM in DMSO) was added and the mixture was incubated for another 30 min at room temperature. Reactions were quenched with SDS loading buffer (15 μL-4×) and run on SDS-PAGE.

[3] = target: T3, MAGL (Mus musculus, UniProt O35678); assay: Mouse brain proteomes from inhibitor treated mice (oral gavage, brain proteome ABPP 4 h after administration); assay type: in vivo; settings: mouse brain proteome 4 h after administration
T3 construct: from tissue; host or cells: brain of wild-type C57Bl/6J mice dosed by oral gavage
T3 sequence (O35678 1-303): T1 sequence (O35678 1-303)
Method: Preparation of Mouse Brain Proteomes from Inhibitor Treated Mice.
Inhibitors were administered to wild-type C57B1/6J by oral gavage in a vehicle of polyethylene glycol. Each animal was sacrificed 4 h following administration and brain proteomes were prepared and analyzed according to previously established methods (See Niphakis, M. J., et al. (2011) ACS Chem. Neurosci. and Long, J. Z., et al. Nat. Chem. Biol. 5:37-44).

[4] = target: T4, MAGL (Homo sapiens, UniProt Q99685); assay: In vitro competitive activity-based protein profiling (FP-Rh or HT-01 probe, gel-based); assay type: biochemical; design: IC50 MGLL PC3 (Human, μM) / IC50 MGLL PFC (Human, μM): scale not given here; settings: for % Inh MGLL PC3 (Human, μM) / IC50 MGLL PC3 (Human, μM): PC3 cell proteome; for % Inh MGLL PC3 (Human, μM) / % Inh MGLL PFC (Human, μM): concentration not given (μM); for % Inh MGLL PFC (Human, μM): prefrontal cortex (PFC) proteome
T4 construct: Proteomes (human prefrontal cortex or cell membrane fractions); from tissue
T4 sequence (Q99685 1-303): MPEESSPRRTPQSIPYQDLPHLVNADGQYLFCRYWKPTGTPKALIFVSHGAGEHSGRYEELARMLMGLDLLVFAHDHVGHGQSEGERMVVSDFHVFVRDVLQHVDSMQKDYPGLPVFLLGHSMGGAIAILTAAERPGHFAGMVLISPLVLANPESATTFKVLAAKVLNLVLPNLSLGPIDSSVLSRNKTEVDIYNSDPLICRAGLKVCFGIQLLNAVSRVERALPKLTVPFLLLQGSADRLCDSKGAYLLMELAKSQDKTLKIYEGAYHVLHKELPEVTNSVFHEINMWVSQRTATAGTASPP
Procedure, shortened: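 Human prefrontal cortex or cell membrane proteomes (1.0 mg/mL total protein) were preincubated with varying inhibitor concentrations for 30 min at 37° C. FP-Rh or HT-01 probe (50 μM DMSO stock) was then added for 30 min at room temperature, and samples were quenched in SDS loading buffer and resolved by SDS-PAGE.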

SMILES | IC50 [1] [µM] | % Inh MGLL Brain (Mouse, μM) [1] | % Inh ABHD6 Brain (Mouse, μM) [2] | IC50 ([2]; mouse proteome) [µM] | % Inh 5 mg/kg MGLL (Mouse) [3] | % Inh MGLL PC3 (Human, μM) [4] | IC50 MGLL PC3 (Human, μM) [4] | % Inh MGLL PFC (Human, μM) [4]
CS(=O)(=O)N1CCC2(CC1)CN(c1cc(C(F)(F)F)ccc1CN1CCN(C(=O)OC(C(F)(F)F)C(F)(F)F)CC1)C2 [Example 207, 1,1,1,3,3,3-Hexafluoropropan-2-yl 4-(2-(7-(methylsulfonyl)-2,7-diazaspiro[3,5]nonan-2-yl)-4-(trifluoromethyl)benzyl) piperazine-1-carboxylate] | < 0.1 | ### (### is ≥75%) | ## (## is between 25 and 75%) | > 1 | ### (### is ≥75%) |  |  | 
CN(Cc1ccc(C(F)(F)F)cc1C1(C(=O)O)CCCC1)C1(C)CCN(C(=O)OC(C(F)(F)F)C(F)(F)F)CC1 [Example 133, l-(2-{[(1-{[(1,1,1,3,3,3-Hexafluoropropan-2-yl)oxy]carbonyl}-4-methylpiperidin-4-yl)(methyl)amino]methyl}-5-(trifluoromethyl)phenyl)cyclop entane-1-carboxylic acid] |  | ### (### is ≥75%) | # (# is ≤25%) |  |  | ### (### is ≥75%) |  | 
O=C(OC(C(F)(F)F)C(F)(F)F)N1CCC2(CCCN2Cc2cc(F)cc(C3(C(=O)O)CCCC3)c2)CC1 [Example 4, 1-(3-Fluoro-5-((8-(((1,1,1,3,3,3-hexafluoropropan-2-yl)oxy)carbonyl)-1,8-diazaspiro[4.5]decan-1-yl)methyl)phenyl)cyclopentane-1-carboxylic acid] |  | ### (### is ≥75%) | # (# is ≤25%) |  |  | ### (### is ≥75%) | * * * | 
O=C(O)C1CCN(c2cc(Cl)ccc2CN2CC3(CCN(C(=O)OC(C(F)(F)F)C(F)(F)F)CC3)C2)CC1 [Example 122, l-(5-Chloro-2-((7-(((1,1,1,3,3,3-hexafluoropropan-2-yl)oxy)carbonyl)-2,7-diazaspiro[3.5]nonan-2-yl)methyl)phenyl)piperidine-4-carboxylic acid] |  | ### (### is ≥75%) | # (# is ≤25%) |  |  |  |  | ### (### is ≥75%)
N#Cc1ccc(C(=O)N2CCC3(CCN(C(=O)OC(C(F)(F)F)C(F)(F)F)CC3)C2)cc1C(F)(F)F [Example 12, 1,1,1,3,3,3-Hexafluoropropan-2-yl 2-(4-cyano-3-(trifluoromethyl)benzoyl)-2,8-diazaspiro[4.5]decane-8-carboxylate] |  | ### (### is ≥75%) | ### (### is ≥75%) |  |  |  | * * * | ### (### is ≥75%)
